{"source": "patent US9273057B2", "about": "(Bristol-Myers Squibb Company, priority 2012, dated 2016)", "molecular_target": "CK2A1 (CK2α/β) (Homo sapiens, UniProt P68400)", "sequence (P68400 whole entry, species assumed)": "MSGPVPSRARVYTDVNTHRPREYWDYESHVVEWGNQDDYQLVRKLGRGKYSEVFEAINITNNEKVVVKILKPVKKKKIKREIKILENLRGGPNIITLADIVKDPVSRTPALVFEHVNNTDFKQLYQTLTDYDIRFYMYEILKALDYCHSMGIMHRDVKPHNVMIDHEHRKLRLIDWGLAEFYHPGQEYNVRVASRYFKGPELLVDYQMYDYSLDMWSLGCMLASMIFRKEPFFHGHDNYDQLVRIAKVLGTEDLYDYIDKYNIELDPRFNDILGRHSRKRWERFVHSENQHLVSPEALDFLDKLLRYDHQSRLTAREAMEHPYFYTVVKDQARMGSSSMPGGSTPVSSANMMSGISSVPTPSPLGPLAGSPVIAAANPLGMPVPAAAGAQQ", "sequence (P67870 whole entry partner, species assumed)": "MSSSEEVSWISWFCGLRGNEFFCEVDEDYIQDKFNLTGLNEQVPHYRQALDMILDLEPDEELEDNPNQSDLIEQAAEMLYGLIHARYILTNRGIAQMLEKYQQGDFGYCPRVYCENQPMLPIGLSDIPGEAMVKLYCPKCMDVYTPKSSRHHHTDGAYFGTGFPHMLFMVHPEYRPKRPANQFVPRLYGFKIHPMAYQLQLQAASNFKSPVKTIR", "assay": "CK2 kinase assay, CK2A1 (CK2α/β)", "format": "biochemical", "details": "Table A; read-out: CK2A1 (CK2α/β) (IC50)", "note": "Counter-ions that a name gives are not always drawn."}
{"smiles": "N#Cc1cnc2c(NC3CC3)nc(Nc3cc(C(F)F)cc(N4CCC(N5CC(F)C5)CC4)c3Cl)nn12", "note": "[Example 258, 2-((2-chloro-5-(difluoromethyl)-3-(4-(3-fluoro-1-azetidinyl)-1-piperidinyl)phenyl)amino)-4-(cyclopropylamino)imidazo[2,1-f][1,2,4]triazine-7-carbonitrile]", "values": [{"measurement": "IC50", "value": 1.93, "unit": "nM"}]}
{"smiles": "CCNc1nc(Nc2cc(C#N)cc(C3CCN(CCOC)CC3)c2Cl)nn2c(C#N)cnc12", "note": "[Example 352, 2-((2-chloro-5-cyano-3-(1-(2-methoxyethyl)-4-piperidinyl)phenyl)amino)-4-(ethylamino)imidazo[2,1-f] [1,2,4]triazine-7-carbonitrile]", "values": [{"measurement": "IC50", "value": 2.73, "unit": "nM"}]}
{"smiles": "COC(=O)N[C@H]1CCN(c2cc(C#N)cc(Nc3nc(NC4CC4)c4ncc(C#N)n4n3)c2Cl)C[C@H]1NCC(F)F", "note": "[Example 749, methyl ((3R,4S)-1-(2-chloro-5-cyano-3-((7-cyano-4-(cyclopropylamino)imidazo[2,1-f][1,2,4]triazin-2-yl)amino)phenyl)-3-((2,2-difluoroethyl)amino)piperidin-4-yl)carbamate]", "values": [{"measurement": "IC50", "value": 0.7, "unit": "nM"}]}
{"smiles": "CC(C(N)=O)N1CC2(CCN(c3cc(C#N)cc(Nc4nc(NC5CC5)c5ncc(C#N)n5n4)c3Cl)CC2)C1", "note": "(racemic) [Example 802, (+/−)-2-(7-(2-chloro-5-cyano-3-((7-cyano-4-(cyclopropylamino)imidazo[2,1-f][1,2,4]triazin-2-yl)amino)phenyl)-2,7-diazaspiro[3.5]nonan-2-yl)propanamide]", "values": [{"measurement": "IC50", "value": 6.9, "unit": "nM"}]}
{"smiles": "COC(=O)Nc1cc(Nc2nc(NC3CC3)c3ncc(C#N)n3n2)c(F)c(N2CCN(C)CC2)c1", "note": "[Example 385, methyl (3-((7-cyano-4-(cyclopropylamino)imidazo[2,1-f][1,2,4]triazin-2-yl)amino)-4-fluoro-5-(4-methylpiperazin-1-yl)phenyl)carbamate]", "values": [{"measurement": "IC50", "value": 2.22, "unit": "nM"}]}
{"smiles": "N#Cc1cc(Nc2nc(NC3CC3)c3ncc(C#N)n3n2)c(Cl)c(C2CCN(C(=O)C3CC3)CC2)c1", "note": "[Example 236, 2-((2-chloro-5-cyano-3-(1-(cyclopropylcarbonyl)-4-piperidinyl)phenyl)amino)-4-(cyclopropylamino)imidazo[2,1-f][1,2,4]triazine-7-carbonitrile]", "values": [{"measurement": "IC50", "value": 0.78, "unit": "nM"}]}
{"smiles": "COCCN1CCN(c2cc(C#N)cc(Nc3nc(NC4CC4)c4ncc(C#N)n4n3)c2Cl)CC1", "note": "[Example 56]", "values": [{"measurement": "IC50", "value": 1.14, "unit": "nM"}]}
{"smiles": "N#Cc1cc(Nc2nc(NC3CC3)c3ncc(C#N)n3n2)c(Cl)c(N2CCN(CC3COCCO3)CC2)c1", "note": "(centres unmarked) [Example 532, 2-((3-(4-((1,4-dioxan-2-yl)methyl)piperazin-1-yl)-2-chloro-5-cyanophenyl)amino)-4-(cyclopropylamino)imidazo[2,1-f][1,2,4]triazine-7-carbonitrile]", "values": [{"measurement": "IC50", "value": 0.85, "unit": "nM"}]}
{"smiles": "N#Cc1cc(Nc2nc(NC3CC3)c3ncc(C#N)n3n2)c(Cl)c(N2CCN(CC3CCCO3)CC2)c1", "note": "(centres unmarked) [Example 531, 2-((2-chloro-5-cyano-3-(4-((tetrahydrofuran-2-yl)methyl)piperazin-1-yl)phenyl)amino)-4-(cyclopropylamino)imidazo[2,1-f][1,2,4]triazine-7-carbonitrile]", "values": [{"measurement": "IC50", "value": 0.44, "unit": "nM"}]}
{"smiles": "C=C(C)/C=C/CN1CCN(c2cc(C#N)cc(Nc3nc(NC4CC4)c4ncc(C#N)n4n3)c2Cl)CC1", "note": "[Example 530, (E)-2-((2-chloro-5-cyano-3-(4-(4-methylpenta-2,4-dien-1-yl)piperazin-1-yl)phenyl)amino)-4-(cyclopropylamino)imidazo[2,1-f][1,2,4]triazine-7-carbonitrile]", "values": [{"measurement": "IC50", "value": 6.24, "unit": "nM"}]}
{"smiles": "N#Cc1cc(Nc2nc(NC3CC3)c3ncc(C#N)n3n2)c(Cl)c(N2CCN(C3CNC3)CC2)c1", "note": "[Example 612, 2-({3-[4-(azetidin-3-yl)piperazin-1-yl]-2-chloro-5-cyanophenyl}amino)-4-(cyclopropylamino)imidazo [2,1-f][1,2,4]triazine-7-carbonitrile]", "values": [{"measurement": "IC50", "value": 0.43, "unit": "nM"}]}
{"smiles": "CCOC1CC1C(=O)N1CC(N2CCN(c3cc(C#N)cc(Nc4nc(NC5CC5)c5ncc(C#N)n5n4)c3Cl)CC2)C1", "note": "(centres unmarked) [Example 520, 2-[(2-chloro-5-cyano-3-{4-[1-(2-ethoxycyclopropane-carbonyl)azetidin-3-yl]piperazin-1-yl}phenyl)amino]-4-(cyclopropylamino)imidazo[2,1-f][1,2,4]triazine-7-carbonitrile]", "values": [{"measurement": "IC50", "value": 4.96, "unit": "nM"}]}
{"smiles": "CC(O)c1cc(C#N)cc(Nc2nc(NC3CC3)c3ncc(C#N)n3n2)c1Cl", "note": "(racemic) [Example 677, (+/−)-2-((2-chloro-5-cyano-3-(1-hydroxyethyl)phenyl)amino)-4-(cyclopropylamino)imidazo[2,1-f][1,2,4]triazine-7-carbonitrile]", "values": [{"measurement": "IC50", "value": 0.47, "unit": "nM"}]}
{"smiles": "CS(=O)(=O)CCN1CC(N2CCN(c3cc(C#N)cc(Nc4nc(NC5CC5)c5ncc(C#N)n5n4)c3Cl)CC2)C1", "note": "[Example 70]", "values": [{"measurement": "IC50", "value": 0.54, "unit": "nM"}]}
{"smiles": "N#Cc1cc(Nc2nc(NC3CC3)c3ncc(C#N)n3n2)c(F)c(N2CCN([C@@H]3COC[C@H]3O)CC2)c1", "note": "(racemic) [Example 552, rac-2-((5-cyano-2-fluoro-3-(4-((3R,4S)-4-hydroxytetrahydrofuran-3-yl)piperazin-1-yl)phenyl)amino)-4-(cyclopropylamino)imidazo[2,1-f][1,2,4]triazine-7-carbonitrile]", "values": [{"measurement": "IC50", "value": 6.31, "unit": "nM"}]}
{"smiles": "CS(=O)(=O)N[C@@H]1CCN(c2cc(C#N)cc(Nc3nc(NC4CC4)c4ncc(C#N)n4n3)c2Cl)C[C@H]1O", "note": "[Example 175, N-((3R,4R)-1-(2-chloro-5-cyano-3-((7-cyano-4-(cyclopropylamino)imidazo[2,1-f][1,2,4]triazin-2-yl)amino)phenyl)-3-hydroxypiperidin-4-yl)methanesulfonamide]", "values": [{"measurement": "IC50", "value": 1.06, "unit": "nM"}]}
{"smiles": "N#Cc1cc(Nc2nc(NC3CC3)c3ncc(C#N)n3n2)c(Cl)c(N2CCC(N[C@@H]3CC[C@H](O)C3)CC2)c1", "note": "(racemic) [Example 121, (+/−) 2-((2-chloro-5-cyano-3-(4-(((1R,3S)-3-hydroxycyclopentyl)amino)-1-piperidinyl)phenyl)amino)-4-(cyclopropylamino)imidazo [2,1-f][1,2,4]triazine-7-carbonitrile]", "values": [{"measurement": "IC50", "value": 1.05, "unit": "nM"}]}
{"smiles": "CO[C@@H]1CN(c2cc(C#N)cc(Nc3nc(NC4CC4)c4ncc(C#N)n4n3)c2Cl)C[C@H]1O", "note": "(racemic) [Example 305, (+/−)-2-((2-chloro-5-cyano-3-((3R,4R)-3-hydroxy-4-methoxypyrrolidin-1-yl)phenyl)amino)-4-(cyclopropylamino)imidazo[2,1-f][1,2,4]triazine-7-carbonitrile, HCl]", "values": [{"measurement": "IC50", "value": 0.65, "unit": "nM"}]}
{"smiles": "Cc1cc(CNC2CCN(c3cc(C#N)cc(Nc4nc(NC5CC5)c5ncc(C#N)n5n4)c3Cl)CC2)on1", "note": "[Example 140, 2-(2-chloro-5-cyano-3-(4-((3-methylisoxazol-5-yl)methylamino)piperidin-1-yl)phenylamino)-4-(cyclopropylamino)imidazo [1,2-f][1,2,4]triazine-7-carbonitrile]", "values": [{"measurement": "IC50", "value": 2.68, "unit": "nM"}]}
{"smiles": "N#Cc1cc(Nc2nc(NC3CC3)c3ncc(C#N)n3n2)c(Cl)c(N2CCC3NCCC3C2)c1", "note": "(racemic) [Example 442, 2-((2-chloro-5-cyano-3-(hexahydro-1H-pyrrolo[3,2-c]pyridin-5(6H)-yl)phenyl)amino)-4-(cyclopropylamino)imidazo[2,1-f][1,2,4]triazine-7-carbonitrile]", "values": [{"measurement": "IC50", "value": 0.77, "unit": "nM"}]}
{"smiles": "CCNc1nc(Nc2cc(C#N)cc(N3CC[C@@H]4[C@@H](C3)OCCN4C)c2Cl)nn2c(C#N)cnc12", "note": "(racemic) [Example 373, (+/−)-2-((2-chloro-5-cyano-3-((4aR,8 aR)-1-methylhexahydro-1H-pyrido[3,4-b][1,4]oxazin-6(7H)-yl)phenyl)amino)-4-(ethylamino)imidazo[2,1-f][1,2,4]triazine-7-carbonitrile]", "values": [{"measurement": "IC50", "value": 0.99, "unit": "nM"}]}
{"smiles": "N#Cc1cc(Nc2nc(NC3CC3)c3ncc(C#N)n3n2)c(Cl)c(N2CCC(N[C@@H]3CCCC[C@H]3F)CC2)c1", "note": "(racemic) [Example 128, (+/−)2-(2-chloro-5-cyano-3-(4-((1R,2S)-2-fluorocyclohexylamino)piperidin-1-yl)phenylamino)-4-(cyclopropylamino)imidazo [1,2-f][1,2,4]triazine-7-carbonitrile]", "values": [{"measurement": "IC50", "value": 4.77, "unit": "nM"}]}
{"smiles": "CN1CCN(Cc2cc(C#N)cc(Nc3nc(NC4CC4)c4ncc(C#N)n4n3)c2Cl)CC1", "note": "[Example 670, 2-((2-chloro-5-cyano-3-((4-methylpiperazin-1-yl)methyl)phenyl)amino)-4-(cyclopropylamino)imidazo[2,1-f][1,2,4]triazine-7-carbonitrile]", "values": [{"measurement": "IC50", "value": 0.76, "unit": "nM"}]}
{"smiles": "CN1CCCN(c2cc(C#N)cc(Nc3nc(NC4CC4)c4ncc(C#N)n4n3)c2Cl)C(=O)C1", "note": "[Example 635, 2-((2-chloro-5-cyano-3-(4-methyl-2-oxo-1,4-diazepan-1-yl)phenyl)amino)-4-(cyclopropylamino)imidazo[2,1-f][1,2,4]triazine-7-carbonitrile]", "values": [{"measurement": "IC50", "value": 1.83, "unit": "nM"}]}
{"smiles": "N#Cc1cc(Nc2nc(NC3CC3)c3ncc(C#N)n3n2)c(Cl)c([C@H]2CCC[C@@H](N3CC(O)C3)C2)c1", "note": "(single isomer, unassigned) [Example 731]", "values": [{"measurement": "IC50", "value": 1.46, "unit": "nM"}]}
{"smiles": "N#Cc1cc(Nc2nc(NC3CC3)c3ncc(C#N)n3n2)c(Cl)c(N2CC[C@H](N)[C@H](F)C2)c1", "note": "[Example 283, 2-((3-((3R,4S)-4-amino-3-fluoropiperidin-1-yl)-2-chloro-5-cyanophenyl)amino)-4-(cyclopropylamino)imidazo[2,1-f][1,2,4]triazine-7-carbonitrile, HCl]", "values": [{"measurement": "IC50", "value": 0.79, "unit": "nM"}]}
{"smiles": "CC(=O)c1cc(C#N)cc(Nc2nc(NC3CC3)c3ncc(C#N)n3n2)c1Cl", "note": "[Example 675, 2-((3-acetyl-2-chloro-5-cyanophenyl)amino)-4-(cyclopropylamino)imidazo[2,1-f][1,2,4]triazine-7-carbonitrile]", "values": [{"measurement": "IC50", "value": 0.24, "unit": "nM"}]}
{"smiles": "N#Cc1cc(CN2CCNC(=O)C2)c(Cl)c(Nc2nc(NC3CC3)c3ncc(C#N)n3n2)c1", "note": "[Example 666, 2-((2-chloro-5-cyano-3-((3-oxopiperazin-1-yl)methyl)phenyl)amino)-4-(cyclopropylamino)imidazo[2,1-f][1,2,4]triazine-7-carbonitrile]", "values": [{"measurement": "IC50", "value": 0.3, "unit": "nM"}]}
{"smiles": "CC(C)(F)C(=O)N1CC(N2CCN(c3cc(C#N)cc(Nc4nc(NC5CC5)c5ncc(C#N)n5n4)c3Cl)CC2)C1", "note": "[Example 499, 2-[(2-chloro-5-cyano-3-{4-[1-(2-fluoro-2-methylpropanoyl)azetidin-3-yl]piperazin-1-yl}phenyl)amino]-4-(cyclopropylamino)imidazo[2,1-f][1,2,4]triazine-7-carbonitrile]", "values": [{"measurement": "IC50", "value": 3.93, "unit": "nM"}]}
